In PubChem BioAssay AID2060489 (Molecular Pharmacology Branch, DTP, NCI, 2025):

Tested on: 922993-354-T-J3-PDC complex spheroids, viability
Experiment: Anticancer human tumor 922993-354-T-J3-PDC patient-derived endometrial carcinoma cell line growth inhibition [GQUAD]
Conditions: for IC50: curve of first compound; for viability, T/C: stronger effect = lower value
Excerpt: DNA G-quadruplex Stabilizer Agents in Combinations in Complex Spheroids
A high-throughput screen of multi-cell type tumor spheroids was designed to identify active combinations of DNA G-quadruplex stabilizer agents and targeted small molecules. Complex spheroids include a stromal component modeled by human endothelial cells (HUVEC) and fibroblasts modeled by human mesenchymal stem cells (MSCs). The concentration ranges selected for each drug and investigational agent were based upon clinically achievable concentrations if the clinical Cmax of the agent was known.
Compounds. The drugs and investigational agents: pidnarulex (CX-5461; NSC782164), APTO-253 (NSC789042), BRACO-19 (NSC847499), peposertib (NSC802822), ceralasertib (NSC780249), elimusertib (NSC800525), camonsertib (NSC841442), AZD-1390 (NSC803789), olaparib (NSC753686), talazoparib (NSC767125), ART-558 (NSC835418), sotorasib (NSC818433), MRTX-1133 (NSC836407), SN-38 (NSC673596), topotecan (NSC609699), etoposide (NSC141540), doxorubicin (NSC123127), gemcitabine (NSC613327), 5-fluorouracil (NSC19893), paclitaxel (NSC125973), vemurafenib (NSC761431), panobinostat (NSC761190), R-306465 (JNJ-16241199; NSC773264), adavosertib (NSC754352), TP-3654 (NSC805149), carboplatin (NSC241240), KSQ-4279 (NSC840948), and staurosporine (NSC755774) were obtained from the National Cancer Institute (NCI) Developmental Therapeutics Program Chemical Repository (34). The FDA-approved anticancer drug set is available from the NCI Developmental Therapeutics Program. […] The stock solutions were prepared in dimethyl sulfoxide (DMSO, Sigma-Aldrich, St. Louis, MO, cat. D2650) at 800-fold the tested concentration and stored at -70 degrees C prior to their use. All drugs and investigational agents were tested over a range starting from a high concentration at or near the clinical Cmax and decreasing in half-log increments. If the clinical Cmax for an agent had not been determined, the highest concentration tested was 10 microM.
2.3 Cell Culture. All cells were maintained in an incubator at 37 degrees C and 5% CO2 with 95% humidity. The PDC lines were cultured according to standard operating procedures established by the NCI PDMR. All PDCs were thawed and cultured in Matrigel-coated flasks prepared with a working solution of 1X Ham's F-12 nutrient mix, without supplementation (Invitrogen, cat. 11765054), 100 U/mL penicillin-streptomycin (Invitrogen, cat. 15140122), and 2.5% Matrigel (Corning Inc., cat. 354248) for the first three passages. The 857933-349-R-J2-PDC line was cultured in 6C/Colon 1B media, which includes advanced DMEM/F-12 (Thermo Fisher Scientific, cat. 12634028), 10 mM HEPES (Thermo Fisher Scientific, cat. 15630080), 1X GlutaMAX supplement (Thermo Fisher Scientific, cat. 35050061), 0.1 mg/mL primocin (InvivoGen, cat. ant-pm-2), 10% defined fetal bovine serum, heat inactivated (HyClone Laboratories Inc., cat. SH30070.03HI), 50% L-WRN conditioned media (ATCC, cat. CRL-3276), 1.25 mM N-Acetyl-L-cysteine (Sigma-Aldrich, cat. A9165), 10 mM nicotinamide (Sigma-Aldrich, cat. N0636), 1X B-27 supplement (Thermo Fisher Scientific, cat. 17504044), 1X N-2 supplement (Thermo Fisher Scientific, cat. 17502048), 10 microM Y-27632 dihydrochloride (Tocris Bioscience, cat. 1254), and 50 ng/mL human EGF recombinant protein (Thermo Fisher Scientific, cat. PHG0311). The 485176-168-R4-J1-PDC line was cultured in Panc media, which includes all 6C/Colon 1B media components plus 100 ng/mL human FGF-10 (Thermo Fisher Scientific, cat. 100-26), 500 nM SB-431542 (Selleckchem, cat. S1067), and gastrin (Tocris, cat. 3006).
[…]

[1] = second compound 0.0316 µM, first compound 0.0316 µM
[2] = second compound 0.0316 µM, first compound 0.1 µM
[3] = second compound 0.0316 µM, first compound 0.316 µM
[4] = second compound 0.0316 µM, first compound 1 µM
[5] = second compound 0.0316 µM, first compound 3.16 µM
[6] = second compound 0.0316 µM, first compound 10 µM
[7] = second compound 0.1 µM, first compound 0.0316 µM
[8] = second compound 0.1 µM, first compound 0.1 µM
[9] = second compound 0.1 µM, first compound 0.316 µM
[10] = second compound 0.1 µM, first compound 1 µM
[11] = second compound 0.1 µM, first compound 3.16 µM
[12] = second compound 0.1 µM, first compound 10 µM
[13] = second compound 0.316 µM, first compound 0.0316 µM
[14] = second compound 0.316 µM, first compound 0.1 µM
[15] = second compound 0.316 µM, first compound 0.316 µM
[16] = second compound 0.316 µM, first compound 1 µM
[17] = second compound 0.316 µM, first compound 3.16 µM
[18] = second compound 0.316 µM, first compound 10 µM
[19] = second compound 1 µM, first compound 0.0316 µM
[20] = second compound 1 µM, first compound 0.1 µM
[21] = second compound 1 µM, first compound 0.316 µM
[22] = second compound 1 µM, first compound 1 µM
[23] = second compound 1 µM, first compound 3.16 µM
[24] = second compound 1 µM, first compound 10 µM
[25] = second compound 3.16 µM, first compound 0.0316 µM
[26] = second compound 3.16 µM, first compound 0.1 µM
[27] = second compound 3.16 µM, first compound 0.316 µM
[28] = second compound 3.16 µM, first compound 1 µM
[29] = second compound 3.16 µM, first compound 3.16 µM
[30] = second compound 3.16 µM, first compound 10 µM
[31] = second compound 10 µM, first compound 0.0316 µM
[32] = second compound 10 µM, first compound 0.1 µM
[33] = second compound 10 µM, first compound 0.316 µM
[34] = second compound 10 µM, first compound 1 µM
[35] = second compound 10 µM, first compound 3.16 µM
[36] = second compound 10 µM, first compound 10 µM
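Further: spheroids exposed to compounds for seven days.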
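Wherever viability, T/C is given: 100% = DMSO vehicle control viability.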

SMILES: COc1cccc2c1C(=O)c1c(O)c3c(c(O)c1C2=O)CC(O)(C(=O)CO)CC3OC1CC(N)C(O)C(C)O1 (centres undefined) + CN(C)c1ccc(Nc2c3ccc(NC(=O)CCN4CCCC4)cc3nc3cc(NC(=O)CCN4CCCC4)ccc23)cc1
- IC50 (second compound 0.0316 µM): 1.66 µM
- IC50 (second compound 0.1 µM): 2.79 µM
- IC50 (second compound 0.316 µM): 4.11 µM
- IC50 (second compound 1 µM): 5.55 µM
- IC50 (second compound 3.16 µM): 5.92 µM
- IC50 (second compound 10 µM): 6.47 µM
- viability, T/C [1]: 91.1%
- viability, T/C [2]: 98%
- viability, T/C [3]: 108%
- viability, T/C [4]: 61.5%
- viability, T/C [5]: 45.6%
- viability, T/C [6]: 25.1%
- viability, T/C [7]: 103%
- viability, T/C [8]: 85.5%
- viability, T/C [9]: 90.6%
- viability, T/C [10]: 87.8%
- viability, T/C [11]: 45.4%
- viability, T/C [12]: 34.1%
- viability, T/C [13]: 94%
- viability, T/C [14]: 94.8%
- viability, T/C [15]: 67.3%
- viability, T/C [16]: 78.5%
- viability, T/C [17]: 55.7%
- viability, T/C [18]: 31.9%
- viability, T/C [19]: 92.4%
- viability, T/C [20]: 85.6%
- viability, T/C [21]: 76.3%
- viability, T/C [22]: 73.9%
- viability, T/C [23]: 78.7%
- viability, T/C [24]: 20.8%
- viability, T/C [25]: 103%
- viability, T/C [26]: 98.4%
- viability, T/C [27]: 104%
- viability, T/C [28]: 86.5%
- viability, T/C [29]: 81%
- viability, T/C [30]: 26.4%
- viability, T/C [31]: 112%
- viability, T/C [32]: 120%
- viability, T/C [33]: 93.4%
- viability, T/C [34]: 97.6%
- viability, T/C [35]: 80%
- viability, T/C [36]: 32.6%

SMILES: O=c1[nH]cc(F)c(=O)[nH]1 + CN(C)c1ccc(Nc2c3ccc(NC(=O)CCN4CCCC4)cc3nc3cc(NC(=O)CCN4CCCC4)ccc23)cc1
- IC50 (second compound 0.0316 µM): 5.9 µM
- IC50 (second compound 0.1 µM): 4.59 µM
- IC50 (second compound 0.316 µM): 3.93 µM
- IC50 (second compound 1 µM): 5.83 µM
- IC50 (second compound 3.16 µM): 5.93 µM
- IC50 (second compound 10 µM): 5.37 µM
- viability, T/C [1]: 82.1%
- viability, T/C [2]: 84.7%
- viability, T/C [3]: 81.8%
- viability, T/C [4]: 91.8%
- viability, T/C [5]: 83.7%
- viability, T/C [6]: 21.4%
- viability, T/C [7]: 110%
- viability, T/C [8]: 93.9%
- viability, T/C [9]: 112%
- viability, T/C [10]: 81%
- viability, T/C [11]: 69.2%
- viability, T/C [12]: 15.7%
- viability, T/C [13]: 103%
- viability, T/C [14]: 100%
- viability, T/C [15]: 91.4%
- viability, T/C [16]: 78.1%
- viability, T/C [17]: 56.8%
- viability, T/C [18]: 22.5%
- viability, T/C [19]: 95.8%
- viability, T/C [20]: 100%
- viability, T/C [21]: 90.6%
- viability, T/C [22]: 105%
- viability, T/C [23]: 82.1%
- viability, T/C [24]: 21.9%
- viability, T/C [25]: 90.4%
- viability, T/C [26]: 113%
- viability, T/C [27]: 105%
- viability, T/C [28]: 98.2%
- viability, T/C [29]: 87.5%
- viability, T/C [30]: 18.8%
- viability, T/C [31]: 117%
- viability, T/C [32]: 135%
- viability, T/C [33]: 121%
- viability, T/C [34]: 117%
- viability, T/C [35]: 72.9%
- viability, T/C [36]: 23.1%
